Experiments:
[1] = AUC infinity in CD-1 mouse plasma at 0.4 mg/kg, iv by LC-MS/MS analysis; assay type: ADME, organism-based; set-up: time infinity, dose 0.4 mg/kg, route iv
[2] = Cmax in CD-1 mouse plasma at 2 mg/kg, po by LC-MS/MS analysis; assay type: ADME, organism-based; set-up: dose 2 mg/kg, route po
[3] = Tmax in CD-1 mouse plasma at 2 mg/kg, po by LC-MS/MS analysis; assay type: ADME, organism-based
[4] = MRT in CD-1 mouse plasma at 0.4 mg/kg, iv by LC-MS/MS analysis; assay type: ADME, organism-based
[5] = Ratio of drug level in brain to plasma in CD-1 mouse plasma at 2 mg/kg, po by LC-MS/MS analysis; assay type: ADME, organism-based; conditions: brain and plasma, read-out: BPR
[6] = Cmax in CD-1 mouse plasma at 0.4 mg/kg, iv by LC-MS/MS analysis; assay type: ADME, organism-based; set-up: dose 0.4 mg/kg, route iv
[7] = Half life in CD-1 mouse plasma at 2 mg/kg, po by LC-MS/MS analysis; assay type: ADME, organism-based
[8] = Ratio of drug level in brain to plasma in CD-1 mouse plasma at 0.4 mg/kg, iv by LC-MS/MS analysis; assay type: ADME, organism-based; conditions: brain and plasma, read-out: BPR
[9] = Half life in CD-1 mouse plasma at 0.4 mg/kg, iv by LC-MS/MS analysis; assay type: ADME, organism-based
in vitro [10] = conditions: human, Caco-2
in vitro [11] = conditions: human, liver microsomes
in vitro [12] = conditions: human, Caco-2; remark: listed apart in the source
[13] = Oral bioavailability in CD-1 mouse plasma at 2 mg/kg by LC-MS/MS analysis; assay type: ADME, organism-based
[14] = Clearance in CD-1 mouse plasma at 0.4 mg/kg, iv by LC-MS/MS analysis; assay type: ADME, organism-based
[15] = MRT in CD-1 mouse plasma at 2 mg/kg, po by LC-MS/MS analysis; assay type: ADME, organism-based
[16] = AUC infinity in CD-1 mouse plasma at 2 mg/kg, po by LC-MS/MS analysis; assay type: ADME, organism-based; set-up: time infinity, dose 2 mg/kg, route po
in vitro [17] = conditions: mouse, liver microsomes

Row | AUC(0-inf) [1] [µM·h] | Cmax [2] [nM] | Tmax [3] [min] | MRT [4] [min] | Kp [5] | Cmax [6] [nM] | half-life [7] [min] | Kp [8] | half-life [9] [min] | Papp A→B (in vitro [10]) [×10⁻⁶ cm/s] | half-life (in vitro [11]) [min] | Papp B→A (in vitro [12]) [×10⁻⁶ cm/s] | bioavailability [13] [%] | clearance [14] [mL/min] | MRT [15] [h] | AUC(0-inf) [16] [µM·h] | half-life (in vitro [17]) [min] | SMILES
1 | – | – | – | – | – | – | – | – | – | 13 | 22 | 4.1 | – | – | – | – | 15.4 | Cc1cc(-c2n[nH]c3ccc(N[C@H]4CCCc5cc(C#N)ccc54)cc23)ccn1
2 | 0.14 | 460 | 30 | 24.6 | 0.5 | 280 | 88.2 | 1 | 18 | 19 | 38 | 25 | 147 | 94.9 | 2.42 | 1.29 | 10.3 | N#Cc1ccc2c(c1)OCC[C@H]2Nc1ccc2[nH]nc(-c3ccncc3)c2c1

The remaining lines, values behind:

Row | SMILES | AUC(0-inf) [1] [µM·h] | Cmax [2] [nM] | Tmax [3] [min] | MRT [4] [min] | Kp [5] | Cmax [6] [nM] | half-life [7] [min] | Kp [8] | half-life [9] [min] | Papp A→B (in vitro [10]) [×10⁻⁶ cm/s] | half-life (in vitro [11]) [min] | Papp B→A (in vitro [12]) [×10⁻⁶ cm/s] | bioavailability [13] [%] | clearance [14] [mL/min] | MRT [15] [h] | AUC(0-inf) [16] [µM·h] | half-life (in vitro [17]) [min]
3 | N#Cc1ccc2c(c1)CCC[C@@H]2Nc1ccc2[nH]nc(-c3ccncc3)c2c1 | 0.27 | 470 | 30 | 48 | 0.8 | 340 | 90 | 1.8 | 42 | 8.9 | 33 | 7.3 | 112 | 68.4 | 2.54 | 1.49 | 17.7
4 | N#Cc1ccc2c(c1)CCC[C@H]2Nc1ccc2[nH]nc(-c3ccnc(N4CCOCC4)c3)c2c1 | 0.4 | 500 | 30 | 51.6 | 0.1 | 480 | 104 | 0.3 | 42 | 6.2 | 30 | 0.8 | 80 | 36.6 | 2.91 | 1.64 | 12.7
5 | Cc1cc(-c2n[nH]c3ccc(N[C@@H]4CCCc5cc(C#N)ccc54)cc23)ccn1 | 0.16 | 390 | 3000 | 30.6 | 0.1 | 310 | 107 | 0.5 | 24 | 1.8 | 22 | 6.8 | 77 | 65.1 | 2.7 | 1.06 | 12.8
6 | N#Cc1ccc2c(c1)CCC[C@H]2Nc1ccc2[nH]nc(-c3ccncc3)c2c1 | – | – | – | – | – | – | – | – | – | 8.1 | 26 | 11 | – | – | – | – | 12.4
7 | Cc1cc(-c2n[nH]c3ccc(N[C@H]4CCCc5cc(C#N)ccc54)cc23)cc(C)n1 | – | – | – | – | – | – | – | – | – | 4.6 | 15 | 4 | – | – | – | – | 11.7

Reference: ChEMBL document CHEMBL5154686, “Discovery of G2019S-Selective Leucine Rich Repeat Protein Kinase 2 inhibitors with in vivo efficacy” (Eur J Med Chem, 2022)
